Test results taken from the supplement of paper PMC10307832.

Legend:
Assay in all cases: relative viability (nuclei count vs DMSO), 5 days (fraction); higher = more cells survive
[1] = compound: CCc1c2c(nc3ccc(OC(=O)N4CCC(N5CCCCC5)CC4)cc13)-c1cc3c(c(=O)n1C2)COC(=O)[C@]3(O)CC [Irinotecan] + Cc1nc(NC(=O)N2CCC[C@H]2C(N)=O)sc1-c1ccnc(C(C)(C)C(F)(F)F)c1 [Alpelisib] (partner 2 µM)
Procedure, shortened: (§1)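 Dosing by pin tool came one day after lung cancer cell lines were seeded in 1536-well plates, using either one drug or a fixed anchor-drug dose plus five library-drug doses (not always all listed) in √10 steps. After 5 days, nuclei were counted on 4× images. Relative viability is treated-well nuclei count divided by vehicle-well nuclei count, and values are medians of duplicate plates.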

[2] = compound: Cn1cc(-c2cnc3ccc4ccc(CS(=O)(=O)NCc5ccccn5)cc4c(=O)c3c2)cn1 [MK-8033] + O=C(CCCCCCC(=O)Nc1ccccc1)NO [Vorinostat] (partner 1 µM)
Procedure, shortened: as §1

[3] = compound: CCc1c2c(nc3ccc(OC(=O)N4CCC(N5CCCCC5)CC4)cc13)-c1cc3c(c(=O)n1C2)COC(=O)[C@]3(O)CC [Irinotecan] + Nc1ncn([C@H]2C[C@H](O)[C@@H](CO)O2)c(=O)n1 [Decitabine] (partner 2 µM)
Procedure, shortened: as §1

[4] = compound: Cn1cc(-c2cnc3ccc4ccc(CS(=O)(=O)NCc5ccccn5)cc4c(=O)c3c2)cn1 [MK-8033] + CC(=O)c1c(C)c2cnc(Nc3ccc(N4CCNCC4)cn3)nc2n(C2CCCC2)c1=O [Palbociclib] (partner 0.5 µM)
Procedure, shortened: as §1

Cell Line	relative viability ([1]; first compound 0.6325 µM)	relative viability ([1]; first compound 2 µM)	relative viability ([1]; first compound 6.325 µM)	relative viability ([1]; first compound 20 µM)	relative viability ([2]; first compound 0.02 µM)	relative viability ([2]; first compound 0.06325 µM)	relative viability ([2]; first compound 0.2 µM)	relative viability ([2]; first compound 0.6325 µM)	relative viability ([2]; first compound 2 µM)	relative viability ([3]; first compound 0.6325 µM)	relative viability ([3]; first compound 2 µM)	relative viability ([3]; first compound 6.325 µM)	relative viability ([3]; first compound 20 µM)	relative viability ([4]; first compound 0.02 µM)	relative viability ([4]; first compound 0.06325 µM)	relative viability ([4]; first compound 0.2 µM)	relative viability ([4]; first compound 0.6325 µM)	relative viability ([4]; first compound 2 µM)
NCI-H1666	0.697	0.552	0.486	0.337	1.04	1.01	1.01	1.09	1.04	0.551	0.62	0.547	0.545	0.684	0.627	0.523	0.707	0.598
HARA	0.557	0.211	0.215	0.177	0.549		0.553	0.521	0.542	0.481	0.318	0.284	0.283	0.229	0.251	0.311	0.296	0.283
NCI-H661	0.798	0.538	0.277	0.269	0.785	0.71	0.793	0.761	0.767	0.532	0.546	0.424	0.168	0.389	0.369	0.403	0.397	0.413
NCI-H2087	0.437	0.22	0.215	0.211	0.788	0.368	0.749	0.728	0.692	0.146	0.218	0.196	0.159	0.193	0.21	0.248	0.26	0.235
LC-2-ad	0.634	0.283	0.155	0.17	0.786	0.651	0.618	0.75	0.659	0.532	0.355	0.338	0.262	0.493	0.453	0.491	0.499	0.488
NCI-H2405		0.678	0.291	0.0889	1.1	0.988	0.9	1.06	1.04		0.667	0.411	0.255	0.515	0.505	0.512	0.514	0.555
HCC-44	0.669	0.347	0.28	0.313	1.06	1.14	1.09	1.2	1.07	0.87	0.913	0.677	0.512	0.98	1.01	0.975	1.01	1.01
NCI-H3122	0.824	0.301	0.244	0.255	0.834	1.3	0.879	1.14	1.01	0.232	0.163	0.117	0.127	0.155	0.173	0.19	0.191	0.223
LU99A	0.219	0.23	0.225	0.219	0.511	0.495	0.565	0.53	0.433	0.196	0.184	0.157	0.169	0.414	0.343	0.398	0.409	0.39
ABC-1		0.654	0.439	0.362	1.24	0.931	0.928	1.04	0.975		0.851	0.515	0.475	0.664	0.733	0.591	0.724	0.646
H3255	0.665	0.409	0.321	0.272	0.847		0.768	0.81	0.742		0.456	0.266	0.225	0.307	0.361	0.309	0.307	0.336
HCC-827	0.522	0.252	0.203	0.233	1.1		0.8	0.907	0.959	0.337	0.326	0.174	0.221	0.49		0.471	0.49	0.545
NCI-H1734	0.625	0.331	0.143	0.233	0.874	0.639	0.698	0.836	0.758		0.27	0.18	0.197	0.349	0.309	0.342	0.331	0.371
EBC-1	0.621	0.387	0.385	0.161														
NCI-H838	1.28	0.962	0.354	0.295	0.765	0.67	0.674	0.736	0.734	0.444	0.47	0.277	0.18	0.213	0.207	0.217	0.213	0.22
NCI-H1437	0.75	0.67	0.262	0.147	0.703	0.801	0.732	0.899	0.769	0.586	0.536	0.391	0.334	0.275	0.317	0.323	0.303	0.3
NCI-H1915	0.3	0.217	0.164	0.155	0.467	0.438	0.518	0.494	0.49	0.216	0.189	0.134	0.126	0.538	0.525	0.496	0.492	0.483
SK-MES-1	0.997	0.877	0.426	0.267	1.2	0.987	1.03	1.04	1.03	0.398	0.483	0.282	0.143	0.333	0.299	0.305	0.359	0.309
NCI-H2342					0.859	0.728	0.643	0.79	0.731	0.732	0.789	0.68	0.436	0.487	0.548	0.623	0.492	0.526
